Assay results from patent publication US20040204463A1, “N-aryl-2-oxazolidinone-5-carboxamides and their derivatives” (priority 2003, published 2004).
Converted amounts (≈) assume the structure as drawn. Counter-ions that a name gives are not always drawn. Like-named read-outs stand apart in the source and are kept apart here.

Key:
SAUR 9213 = experiment: In vitro MIC by standard agar dilution method, SAUR 9213; type: cell-based, S. aureus; details: Staphylococcus aureus, read-out: SAUR 9213 MIC (Minimum Inhibitory Concentration)
Description: (§1) The oxazolidinone antibacterial agents of this invention have useful activity against a variety of organisms. The in vitro activity of compounds of this invention can be assessed by standard testing procedures such as the determination of minimum inhibitory concentration (MIC) by agar dilution as described in “Approved Standard. Methods for Dilution Antimicrobial Susceptibility Tests for Bacteria That Grow Aerobically”, 3rd. ed., published 1993 by the National Committee for Clinical Laboratory Standards, Villanova, Pa., USA.
(§2) The in vitro MICs of test compounds were determined by a standard agar dilution method. A stock drug solution of each analog was prepared in the preferred solvent, usually DMSO: H2O (1:3). Serial 2-fold dilutions of each sample are made using 1.0 ml aliquots of sterile distilled water. To each 1.0 ml aliquot of drug was added 9 ml of molten Mueller Hinton agar medium. The drug-supplemented agar was mixed, poured into 15×100 mm petri dishes, and allowed to solidify and dry prior to inoculation.
(§3) Vials of each of the test organisms are maintained frozen in the vapor phase of a liquid nitrogen freezer. Test cultures are grown overnight at 35° C. on the medium appropriate for the organism. Colonies are harvested with a sterile swab, and cell suspensions are prepared in Trypticase Soy broth (TSB) to equal the turbidity of a 0.5 McFarland standard. A 1:20 dilution of each suspension was made in TSB. The plates containing the drug supplemented agar are inoculated with a 0.001 ml drop of the cell suspension using a Steers replicator, yielding approximately 10^4 to 10^5 cells per spot. The plates are incubated overnight at 35° C.
(§4) Following incubation the Minimum Inhibitory Concentration (MIC μg/ml), the lowest concentration of drug that inhibits visible growth of the organism, was read and recorded.

SPNE 9912 = experiment: In vitro MIC by standard agar dilution method, SPNE 9912; type: cell-based; details: read-out: SPNE 9912 MIC (Minimum Inhibitory Concentration)
Description: as §1, §2, §3, §4

HINF 30063 = experiment: In vitro MIC by standard agar dilution method, HINF 30063; type: cell-based, H. influenzae; details: Haemophilus influenzae, read-out: HINF 30063 MIC (Minimum Inhibitory Concentration)
Description: as §1, §2, §3, §4

[1] = agar dilution, Mueller Hinton agar, incubated overnight at 35° C., lowest concentration that inhibits visible growth

| MIC (SAUR 9213; [1]) [mg/L] | MIC (SPNE 9912; [1]) [mg/L] | MIC (HINF 30063; [1]) [mg/L] | Structure (SMILES) | MIC (SAUR 9213) [mg/L] | MIC (SPNE 9912) [mg/L] | MIC (HINF 30063) [mg/L] |
| --- | --- | --- | --- | --- | --- | --- |
|  |  |  | C#CCCCC(=O)N1CCN(c2ccc(N3C[C@H](CNC(C)=O)OC3=O)cc2F)CC1 [Compound 4, N-({(5S)-3-[3-Fluoro-4-(4-hex-5-ynoylpiperazin-1-yl)phenyl]-2-oxo-1,3-oxazolidin-5-yl}methyl)acetamide] | 4 (≈ 9.29 µM) | 1 (≈ 2.32 µM) | 64 (≈ 149 µM) |
| 2 (≈ 3.73 µM) | 1 (≈ 1.87 µM) | 16 (≈ 29.9 µM) | CC(=O)NC[C@H]1CN(c2ccc(N3CCN(C(=O)CCCC#Cc4cccc(CN)c4)CC3)c(F)c2)C(=O)O1 [Compound 6, N-({(5S)-3-[4-(4-{6-[3-(aminomethyl)phenyl]hex-5-ynoyl}piperazin-1-yl)-3-fluorophen-yl]-2-oxo-1,3-oxazolidin-5-yl}methyl)acetamide] |  |  |  |
| 4 (≈ 7.65 µM) | 1 (≈ 1.91 µM) | > 64 | CC(=O)NC[C@H]1CN(c2ccc(N3CCN(C(=O)CCCC#Cc4ccc(O)cc4)CC3)c(F)c2)C(=O)O1 [Compound 7, N-{[(5S)-3-(3-Fluoro-4-{4-[6-(4-hydroxyphenyl)hex-5-ynoyl]piperazin-1-yl}phenyl)-2-oxo-1,3-oxazolidin-5-yl]methyl}acetamide] |  |  |  |
| 4 (≈ 9.6 µM) | < 0.5 | > 32 | C#CCCC(=O)N1CCN(c2ccc(N3C[C@H](CNC(C)=O)OC3=O)cc2F)CC1 [Compound 8, N-[((5S)-3-{3-fluoro-4-[4-(4-pentynoyl)-1-piperazinyl]phenyl}-2-oxo-1,3-oxazolidin-5-yl)methyl]acetamide] |  |  |  |
| 4 (≈ 8.88 µM) | 2 (≈ 4.44 µM) | 16 (≈ 35.5 µM) | CC(=O)NC[C@H]1CN(c2ccc(N3CCN(CC#Cc4ccccc4)CC3)c(F)c2)C(=O)O1 [Compound 9, N-[((5S)-3-{3-fluoro-4-[4-(3-phenylprop-2-ynyl)piperazin-1-yl]phenyl}-2-oxo-1,3-oxazolidin-5-yl)methyl]acetamide] |  |  |  |
| 4 (≈ 7 µM) | 2 (≈ 3.5 µM) | 32 (≈ 56 µM) | CC(=O)NC[C@H]1CN(c2cc(F)c(N3CCN(C(=O)CCCC#Cc4ccc(CN)cc4)CC3)c(F)c2F)C(=O)O1 [Compound 10, N-({(5S)-3-[4-(4-{6-[4-(aminomethyl)phenyl]hex-5-ynoyl}piperazin-1-yl)-2,3,5-trifluorophenyl]-2-oxo-1,3-oxazolidin-5-yl}methyl)acetamide] |  |  |  |
| 4 (≈ 7 µM) | 2 (≈ 3.5 µM) | 16 (≈ 28 µM) | CC(=O)NC[C@H]1CN(c2cc(F)c(N3CCN(C(=O)CCCC#Cc4cccc(CN)c4)CC3)c(F)c2F)C(=O)O1 [Compound 11, N-({(5S)-3-[4-(4-{6-[3-(aminomethyl)phenyl]hex-5-ynoyl}piperazin-1-yl)-2,3,5-trifluorophenyl]-2-oxo-1,3-oxazolidin-5-yl}methyl)acetamide] |  |  |  |
| 16 | 2 | > 64 | CC(=O)NC[C@H]1CN(c2ccc(N3CCN(C(=O)CCCC#Cc4ccc(/C(N)=N/O)cc4)CC3)c(F)c2)C(=O)O1.Cl [Compound 12, N-[((5S)-3-{4-[4-(6-{4-[(Z)-amino(hydroxyimino)methyl]-phenyl}hex-5-ynoyl)piperazin-1-yl]-3-fluorophenyl}-2-oxo-1,3-oxazolidin-5-yl)methyl]-acetamide hydrochloride] |  |  |  |
|  |  |  | CC(=O)NC[C@H]1CN(c2ccc(N3CCN(C(=O)CCC#Cc4ccc(C[C@H](N)C(=O)O)cc4)CC3)c(F)c2)C(=O)O1 [Compound 13, 4-{5-[4-(4-{(5S)-5-[(acetylamino)methyl]-2-oxo-1,3-oxazolidin-3-yl}-2-fluorophenyl)piperazin-1-yl]-5-oxopent-1-ynyl}-L-phenylalanine] | > 64 | 64 (≈ 110 µM) | > 64 |
| 8 (≈ 15 µM) | 2 (≈ 3.76 µM) | > 64 | CC(=O)NC[C@H]1CN(c2ccc(N3CCN(C(=O)CCCC#Cc4cccc(C#N)c4)CC3)c(F)c2)C(=O)O1 [Compound 14, N-{[(5S)-3-(4-{4-[6-(3-cyanophenyl)hex-5-ynoyl]piperazin-1-yl}-3-fluorophenyl)-2-oxo-1,3-oxazolidin-5-yl]methyl}acetamide] |  |  |  |
| > 16 | 2 | > 16 | CC(=O)NC[C@H]1CN(c2ccc(N3CCN(C(=O)CCCC#Cc4ccc(/C(C)=N/O)cc4)CC3)c(F)c2)C(=O)O1 [Compound 15, N-[((5S)-3-{3-fluoro-4-[4-(6-{4-[(1E)-N-hydroxyethan-imidoyl]-phenyl}hex-5-ynoyl)piperazin-1-yl]phenyl}-2-oxo-1,3-oxazolidin-5-yl)methyl]-acetamide, HCl salt] |  |  |  |
| 16 (≈ 31 µM) | 2 (≈ 3.87 µM) | 16 (≈ 31 µM) | CCC(=O)NC[C@H]1CN(c2ccc(C3(C)CN(C(=O)CCCC#Cc4cccc(CN)c4)C3)cc2)C(=O)O1 [Compound 16, N-({(5S)-3-[4-(1-{6-[3-(aminomethyl)phenyl]hex-5-ynoyl}-3-methylazetidin-3-yl)phenyl]-2-oxo-1,3-oxazolidin-5-yl}methyl)propan-amide] |  |  |  |
| > 64 | 2 (≈ 3.65 µM) | > 64 | CC(=O)NC[C@H]1CN(c2ccc(N3CCN(C(=O)CCCC#Cc4ccc(C(C)=O)cc4)CC3)c(F)c2)C(=O)O1 [Compound 17, N-{[(5S)-3-(4-{4-[6-(4-acetylphenyl)hex-5-ynoyl]piperazin-1-yl}-3-fluorophenyl)-2-oxo-1,3-oxazolidin-5-yl]methyl}acetamide] |  |  |  |
| 16 (≈ 27.3 µM) | 2 (≈ 3.41 µM) | > 64 | CC(=O)NC[C@H]1CN(c2ccc(N3CCN(C(=O)CCCC#Cc4ccc(Cn5ccnc5)cc4)CC3)c(F)c2)C(=O)O1 [Compound 18, N-({(5S)-3-[3-fluoro-4-(4-{6-[4-(1H-imidazol-1-ylmethyl)phenyl]hex-5-ynoyl}piperazin-1-yl)phenyl]-2-oxo-1,3-oxazolidin-5-yl}methyl)acetamide] |  |  |  |
| 4 (≈ 7.28 µM) | 0.25 (≈ 0.455 µM) | 32 (≈ 58.2 µM) | CNCc1ccc(C#CCCCC(=O)N2CCN(c3ccc(N4C[C@H](CNC(C)=O)OC4=O)cc3F)CC2)cc1 [Compound 19, N-[((5S)-3-{3-fluoro-4-[4-(6-{4-[(methylamino)methyl]phenyl}hex-5-ynoyl)piperazin-1-yl]phenyl}-2-oxo-1,3-oxazolidin-5-yl)methyl]acetamide] |  |  |  |
| 4 (≈ 7.88 µM) | 2 (≈ 3.94 µM) | 64 (≈ 126 µM) | CC(=O)NC[C@H]1CN(c2ccc(N3CCN(C(=O)CCC#Cc4ccc(N)cc4)CC3)c(F)c2)C(=O)O1 [Compound 20, N-{[(5S)-3-(4-{4-[5-(4-aminophenyl)pent-4-ynoyl]piperazin-1-yl}-3-fluorophenyl)-2-oxo-1,3-oxazolidin-5-yl]methyl}acetamide] |  |  |  |
| 32 (≈ 53.9 µM) | 4 (≈ 6.74 µM) | > 64 | COC(=O)[C@@H](N)Cc1ccc(C#CCCC(=O)N2CCN(c3ccc(N4C[C@H](CNC(C)=O)OC4=O)cc3F)CC2)cc1 [Compound 21, methyl 4-{5-[4-(4-{(5S)-5-[(acetylamino)methyl]-2-oxo-1,3-oxazolidin-3-yl}-2-fluorophenyl)piperazin-1-yl]-5-oxopent-1-ynyl}-L-phenylalaninate] |  |  |  |
| 32 (≈ 60.8 µM) | 4 (≈ 7.6 µM) | 32 (≈ 60.8 µM) | CC(=O)NC[C@H]1CN(c2ccc(N3CCN(C(=O)CCC#Cc4c[nH]c(=O)[nH]c4=O)CC3)c(F)c2)C(=O)O1 [Compound 22, N-{[(5S)-3-(4-{4-[5-(2,4-dioxo-1,2,3,4-tetrahydropyrimidin-5-yl)pent-4-ynoyl]piperazin-1-yl}-3-fluorophenyl)-2-oxo-1,3-oxazolidin-5-yl]methyl}acetamide] |  |  |  |
| 4 (≈ 7.28 µM) | 0.25 (≈ 0.455 µM) | 32 (≈ 58.2 µM) | CC(=O)NC[C@H]1CN(c2ccc(N3CCN(C(=O)CCCCC#Cc4ccc(CN)cc4)CC3)c(F)c2)C(=O)O1 [Compound 23, N-({(5S)-3-[4-(4-{7-[4-(aminomethyl)phenyl]hept-6-ynoyl}piperazin-1-yl)-3-fluorophenyl]-2-oxo-1,3-oxazolidin-5-yl}methyl)acetamide] |  |  |  |
| 8 (≈ 14.9 µM) | 2 (≈ 3.73 µM) | > 64 | CC(=O)NC[C@H]1CN(c2ccc(N3CCN(C(=O)CCCCC#Cc4ccc(O)cc4)CC3)c(F)c2)C(=O)O1 [Compound 24, N-{[(5S)-3-(3-fluoro-4-{4-[7-(4-hydroxyphenyl)hept-6-ynoyl]piperazin-1-yl}phenyl)-2-oxo-1,3-oxazolidin-5-yl]methyl}acetamide] |  |  |  |
| 8 (≈ 14.9 µM) | 2 (≈ 3.73 µM) | > 64 | CC(=O)NC[C@H]1CN(c2ccc(N3CCN(C(=O)CCCCC#Cc4cccc(O)c4)CC3)c(F)c2)C(=O)O1 [Compound 25, N-{[(5S)-3-(3-fluoro-4-{4-[7-(3-hydroxyphenyl)hept-6-ynoyl]piperazin-1-yl}phenyl)-2-oxo-1,3-oxazolidin-5-yl]methyl}acetamide] |  |  |  |
